Experimental data from US20260232666A1, “COMPOSITIONS AND METHODS FOR INHIBITION OF RAS” (TheRas, Inc., priority 2023, published 2026).

How the values were obtained:
Format in all cases: binding
Conditions in all cases: 15 minutes reaction time point
[1] = biological target: T1, GppNHp-loaded KRAS4b (amino acids 1-169) G12C/C118S protein (Homo sapiens, UniProt P01116, C118S/G12C); assay: Covalent cysteine 12 modification by MALDI-TOF MS, GppNHp-loaded KRAS G12C
T1 construct: KRAS4b (amino acids 1-169) G12C/C118S protein; made in house
Method in brief: (§1)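 Percent modification comes from MALDI-TOF peak heights: the compound-adduct peak divided by the sum of the remaining-protein and adduct peaks. Reactions contained 1 μM protein and compound at a 1:2.5 ratio, in pH 7.3 HEPES buffer with NaCl and MgCl2, held 15 min at room temperature.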

[2] = biological target: T2, GTP-loaded KRAS4b (amino acids 1-169) G12C/C118S protein (Homo sapiens, UniProt P01116, C118S/G12C); assay: Covalent cysteine 12 modification by MALDI-TOF MS, GTP-loaded KRAS G12C
T2 construct: KRAS4b (amino acids 1-169) G12C/C118S protein; made in house
Method in brief: as §1

[3] = biological target: T3, GDP-loaded KRAS4b (amino acids 1-169) G12C/C118S protein (Homo sapiens, UniProt P01116, C118S/G12C); assay: Covalent cysteine 12 modification by MALDI-TOF MS, GDP-loaded KRAS G12C
T3 construct: KRAS4b (amino acids 1-169) G12C/C118S protein; made in house
Method in brief: as §1

| GppNHp-KRAS G12C percent of modification [1] | GTP-KRAS G12C percent of modification [2] | GDP-KRAS G12C percent of modification [3] | SMILES |
| --- | --- | --- | --- |
| A (percent of modification ≥70%) | A (percent of modification ≥70%) | A (percent of modification ≥70%) | C=CC(=O)N1CC[C@@H](N(C)c2nc(OC[C@@]34CCCN3C[C@H](F)C4)nc3cc(-c4ccc(F)c5sc(N)c(C#N)c45)c(C#N)cc23)[C@H]1CC [Compound 42] |
| D (percent of modification <10%) | D (percent of modification <10%) | A (percent of modification ≥70%) | C=CC(=O)N1CC[C@@H](N(CC)c2nc(OC[C@@]34CCCN3C[C@H](F)C4)nc3c(F)c(-c4ccc(F)c5sc(N)c(C#N)c45)ccc23)[C@@H]1CC [Compound 50] |
| D (percent of modification <10%) | D (percent of modification <10%) | A (percent of modification ≥70%) | C=CC(=O)N1CC[C@@H](N(CC)c2nc(OC[C@@]34CCCN3C[C@H](F)C4)nc3cc(-c4ccc(F)c5sc(N)c(C#N)c45)c(C#N)cc23)[C@@H]1CC [Compound 40] |
| A (percent of modification ≥70%) | A (percent of modification ≥70%) | A (percent of modification ≥70%) | C=CC(=O)N1CC[C@@H](N(CC)c2nc(OC[C@@]34CCCN3C[C@H](F)C4)nc3c(F)c(-c4ccc(F)c5sc(N)c(C#N)c45)c(Cl)cc23)[C@@H]1C [Compound 77] |
| B (50≤percent of modification <70%) | C (10%≤percent of modification <50%) | A (percent of modification ≥70%) | C=CC(=O)N1CC[C@@H](N(CC)c2nc(OC[C@@]34CCCN3C[C@H](F)C4)nc3cc(-c4ccc(F)c5sc(N)c(C#N)c45)c(C#N)cc23)[C@@H]1C [Compound 56] |
| C (10%≤percent of modification <50%) | B (50≤percent of modification <70%) | C (10%≤percent of modification <50%) | C=CC(=O)N1CCC(N(C)c2nc(OC[C@@]34CCCN3C[C@H](F)C4)nc3c(F)c(-c4ccc(F)c5sc(N)c(C#N)c45)c(C(F)(F)F)cc23)[C@H]1CC (stereo partly shown) [Compound 3] |
| A (percent of modification ≥70%) | B (50≤percent of modification <70%) | A (percent of modification ≥70%) | C=CC(=O)N1CC[C@@H](N(CC)c2nc(OC[C@@]34CCCN3C[C@H](F)C4)nc3cc(-c4ccc(F)c5sc(N)c(C#N)c45)c(F)cc23)[C@H]1CC [Compound 76] |
| D (percent of modification <10%) | D (percent of modification <10%) | A (percent of modification ≥70%) | C=CC(=O)N1CC[C@@H](N(CC)c2nc(OC[C@@]34CCCN3C[C@H](F)C4)nc3cc(-c4ccc(F)c5sc(N)c(C#N)c45)c(F)cc23)[C@@H]1CC [Compound 41] |

Continued, compound first:

| SMILES | GppNHp-KRAS G12C percent of modification [1] | GTP-KRAS G12C percent of modification [2] | GDP-KRAS G12C percent of modification [3] |
| --- | --- | --- | --- |
| C=CC(=O)N1CC2CCC(C1)N2c1nc(OC[C@@]23CCCN2C[C@H](F)C3)nc2c(F)c(-c3ccc(F)c4sc(N)c(C#N)c34)c(C(F)(F)F)cc12 [Compound 49] | C (10%≤percent of modification <50%) | D (percent of modification <10%) | A (percent of modification ≥70%) |
| C=CC(=O)N1CC[C@@H](N(CC)c2nc(OC[C@@H]3C[C@@H](F)CN3C)nc3c(F)c(-c4ccc(F)c5sc(N)c(C#N)c45)c(C(F)(F)F)cc23)[C@H]1C [Compound 52] | B (50≤percent of modification <70%) | A (percent of modification ≥70%) | C (10%≤percent of modification <50%) |
| C=CC(=O)N1CC[C@@H](N(C)c2nc(OC[C@@H]3CCCN3C)nc3c(F)c(-c4ccc(F)c5sc(N)c(C#N)c45)c(Cl)cc23)[C@@H]1C [Compound 83] | A (percent of modification ≥70%) | B (50≤percent of modification <70%) | A (percent of modification ≥70%) |
| C=CC(=O)N1CC[C@@H](N(C)c2nc(OC[C@@H]3C[C@@H](F)CN3C)nc3c(F)c(-c4ccc(F)c5sc(N)c(C#N)c45)c(C(F)(F)F)cc23)[C@H]1C [Compound 55] | A (percent of modification ≥70%) | A (percent of modification ≥70%) | A (percent of modification ≥70%) |
| C=CC(=O)N1CC[C@@H](N(C)c2nc(OC[C@@H]3CCCN3CC)nc3c(F)c(-c4ccc(F)c5sc(N)c(C#N)c45)c(Cl)cc23)[C@@H]1C [Compound 84] | A (percent of modification ≥70%) | B (50≤percent of modification <70%) |  |
| C=CC(=O)N1CC[C@@H](N(C)c2nc(OC[C@@H]3C[C@@H](OC)CN3C)nc3c(F)c(-c4ccc(F)c5sc(N)c(C#N)c45)c(Cl)cc23)[C@H]1C [Compound 63, 4-(4-(((2R,3R)-1-acryloyl-2-methylpyrrolidin-3-yl)(methyl)amino)-6-chloro-8-fluoro-2-(((2S,4R)-4-methoxy-1-methylpyrrolidin-2-yl)methoxy)quinazolin-7-yl)-2-amino-7-fluorobenzo[b]thiophene-3-carbonitrile] | B (50≤percent of modification <70%) | B (50≤percent of modification <70%) | A (percent of modification ≥70%) |
| C=CC(=O)N1CC[C@@H](N(C)c2nc(OC[C@@H]3CC4(CC4)CN3CC)nc3c(F)c(-c4ccc(F)c5sc(N)c(C#N)c45)c(C(F)(F)F)cc23)[C@@H]1C [Compound 95] | A (percent of modification ≥70%) | B (50≤percent of modification <70%) | A (percent of modification ≥70%) |
| C=CC(=O)N1CC[C@@H](N(C)c2nc(OC[C@@H]3CCCN3C)nc3c(F)c(-c4ccc(F)c5sc(N)c(C#N)c45)c(C(F)(F)F)cc23)[C@H]1C [Compound 67] | A (percent of modification ≥70%) | A (percent of modification ≥70%) | A (percent of modification ≥70%) |
| C=CC(=O)N1CC[C@@H](N(CC)c2nc(OC[C@@H]3CC4(CC4)CN3C)nc3c(F)c(-c4ccc(F)c5sc(N)c(C#N)c45)c(C(F)(F)F)cc23)[C@H]1C [Compound 65] | A (percent of modification ≥70%) | A (percent of modification ≥70%) |  |
| C=CC(=O)N1CC[C@@H](N(C)c2nc(OC[C@@H]3CCCN3C)nc3c(F)c(-c4ccc(F)c5sc(N)c(C#N)c45)c(Cl)cc23)[C@H]1C [Compound 59] | A (percent of modification ≥70%) | A (percent of modification ≥70%) |  |
| C=CC(=O)N1CC[C@@H](N(CC)c2nc(OC[C@@H]3C[C@@H](OC)CN3C)nc3c(F)c(-c4ccc(F)c5sc(N)c(C#N)c45)c(Cl)cc23)[C@H]1C [Compound 73] | B (50≤percent of modification <70%) | C (10%≤percent of modification <50%) | B (50≤percent of modification <70%) |
| C=CC(=O)N1CC[C@@H](N(CC)c2nc(OC[C@@H]3CCCN3C)nc3c(F)c(-c4ccc(F)c5sc(N)c(C#N)c45)c(C(F)(F)F)cc23)[C@H]1C [Compound 66] | A (percent of modification ≥70%) | A (percent of modification ≥70%) |  |
| C=CC(=O)N1CC[C@@H](N(C)c2nc(OC[C@@H]3CC4(CC4)CN3CC)nc3c(F)c(-c4ccc(F)c5sc(N)c(C#N)c45)c(Cl)cc23)[C@@H]1C [Compound 92] | A (percent of modification ≥70%) | B (50≤percent of modification <70%) | A (percent of modification ≥70%) |
| C=CC(=O)N1CC[C@@H](N(C)c2nc(OC[C@@H]3C[C@@H](OC)CN3C)nc3c(F)c(-c4ccc(F)c5sc(N)c(C#N)c45)c(Cl)cc23)[C@@H]1C [Compound 79] | A (percent of modification ≥70%) | C (10%≤percent of modification <50%) |  |
| C=CC(=O)N1CC[C@@H](N(CC)c2nc(OC[C@@H]3CC4(CC4)CN3C)nc3c(F)c(-c4ccc(F)c5sc(N)c(C#N)c45)c(Cl)cc23)[C@H]1C [Compound 75] | A (percent of modification ≥70%) | A (percent of modification ≥70%) | A (percent of modification ≥70%) |
| C=CC(=O)N1CC[C@@H](N(C)c2nc(OC[C@@H]3CC4(CC4)CN3C)nc3c(F)c(-c4ccc(F)c5sc(N)c(C#N)c45)c(Cl)cc23)[C@H]1C [Compound 64] | B (50≤percent of modification <70%) | B (50≤percent of modification <70%) |  |
| C=CC(=O)N1CC[C@@H](N(C)c2nc(OC[C@@H]3CCCN3CC)nc3c(F)c(-c4ccc(F)c5sc(N)c(C#N)c45)c(C(F)(F)F)cc23)[C@H]1C [Compound 88] |  | B (50≤percent of modification <70%) | B (50≤percent of modification <70%) |
| C=CC(=O)N1CC[C@@H](N(C)c2nc(OC[C@@H]3C[C@@H](F)CN3C)nc3c(F)c(-c4ccc(F)c5sc(N)c(C#N)c45)c(Cl)cc23)[C@H]1C [Compound 61] | C (10%≤percent of modification <50%) | C (10%≤percent of modification <50%) |  |
